Assay results from patent US8134004B2, “Substituted N-bicyclicalkyl bicycliccarboxyamide compounds” (Pfizer Inc., priority 2006, dated 2012).
pIC50: −log10 of the molar value. Where a name gives a salt, the structure may show the parent alone.

biological target: human VR1 (Homo sapiens, UniProt Q8NER1); experiment: Human VR1 antagonist assay (Ca2+ imaging); format: cell-based; settings: Ca2+ imaging assay using human VR1 highly expressing cells, fura-2/AM; agonist stimulation (capsaicin 300 nM or acid pH 5.8), not given
Sequence (Q8NER1 whole entry): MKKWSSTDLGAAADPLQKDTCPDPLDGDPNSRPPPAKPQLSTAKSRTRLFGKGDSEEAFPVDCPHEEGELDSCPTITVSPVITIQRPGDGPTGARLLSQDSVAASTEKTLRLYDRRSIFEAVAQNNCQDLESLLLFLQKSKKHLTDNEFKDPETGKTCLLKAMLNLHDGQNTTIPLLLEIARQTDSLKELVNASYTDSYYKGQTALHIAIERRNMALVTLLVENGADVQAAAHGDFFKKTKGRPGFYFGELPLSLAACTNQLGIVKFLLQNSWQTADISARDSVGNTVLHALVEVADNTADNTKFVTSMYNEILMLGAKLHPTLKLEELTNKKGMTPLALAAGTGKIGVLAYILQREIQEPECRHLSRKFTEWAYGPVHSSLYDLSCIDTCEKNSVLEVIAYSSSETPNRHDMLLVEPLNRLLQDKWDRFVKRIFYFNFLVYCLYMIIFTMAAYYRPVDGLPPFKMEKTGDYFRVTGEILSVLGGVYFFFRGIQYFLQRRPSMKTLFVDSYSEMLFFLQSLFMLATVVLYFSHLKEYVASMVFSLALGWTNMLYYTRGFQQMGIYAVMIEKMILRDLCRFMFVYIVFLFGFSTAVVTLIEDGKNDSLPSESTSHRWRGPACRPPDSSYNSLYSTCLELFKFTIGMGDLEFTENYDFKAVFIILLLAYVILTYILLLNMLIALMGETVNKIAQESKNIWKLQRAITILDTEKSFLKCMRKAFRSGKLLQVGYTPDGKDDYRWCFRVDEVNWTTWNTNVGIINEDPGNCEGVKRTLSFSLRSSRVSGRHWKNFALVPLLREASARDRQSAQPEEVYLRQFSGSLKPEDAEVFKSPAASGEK
Description: Human VR1 Antagonist Assay
VR1 antagonistic activity can be determined by the Ca^2+ imaging assay using human VR1 highly expressing cells. The cells that highly express human VR1 receptors are obtainable from several different conventional methods. The one standard method is cloning from human Dorsal Root Ganglion (DRG) or kidney according to the methods such as described in the journal article; Nature, 389, pp 816-824, 1997. Alternatively VR1 receptors highly expressing human keratinocytes are also known and published in the journal article (Biochemical and Biophysical Research Communications, 291, pp 124-129, 2002). […] Furthermore, the method to up regulate human VR1 gene, which is usually a silent gene or don't produce detectable level of VR1 receptors, is also available to obtain propriety cells. Such genetic modification method was described in detail; Nat. Biotechnol., 19, pp 440-445, 2001.
The cells that express human VR1 receptors were maintained in culture flask at 37° C. in an environment containing 5% CO2 until use in the assay. The intracellular Ca^2+ imaging assay to determine VR1 antagonistic activities were done by following procedures.
The culture medium was removed from the flask and fura-2/AM fluorescent calcium indicator was added to the flask at a concentration of 5 μM in the medium. The flask was placed in CO2 incubator and incubated for 1 hour. Then the cells expressing the human VR1 receptors were detached from the flask follow by washing with phosphate buffer saline, PBS(−) and re-suspended in assay buffer. The 80 μl of aliquot of cell suspension (3.75×10^5 cells/ml) was added to the assay plate and the cells were spun down by centrifuge (950 rpm, 20° C., 3 minutes).
The compounds of the examples were tested in the Human VR1 antagonist assay described above.
The capsaicin-induced changes in the intracellular calcium concentration were monitored using FDSS 6000 (Hamamatsu Photonics, Japan), a fluorometric imaging system. The cell suspension in Krebs-Ringer HEPES (KRH) buffer (115 mM NaCl, 5.4 mM KCl, 1 mM MgSO4, 1.8 mM CaCl2, 11 mM D-Glucose, 25 mM HEPES, 0.96 mM Na2HPO4, pH 7.3) were pre-incubated with varying concentrations of the test compounds or KRH buffer (buffer control) for 15 minutes at room temperature under the dark condition. Then capsaicin solution, which gives 300 nM in assay mixture, was automatically added to the assay plate by the FDSS 6000.
The Acid-induced changes in the intracellular calcium concentration were monitored using FDSS 6000 (Hamamatsu Photonics, Japan), a fluorometric imaging system. The cell suspension in resting buffer (HBSS supplemented with 10 mM HEPES, pH 7.4) were pre-incubated with varying concentrations of the test compounds or resting buffer (buffer control) for 15 minutes at room temperature under the dark condition. The cells were automatically added the stimulating solution (HBSS supplemented with MES, final assay buffer pH5.8) by the FDSS 6000.
The monitoring of the changes in the fluorescence signals (λex=340 nm/380 nm, λem=510-520 nm) was initiated at 1 minute prior to the addition of capsaicin solution or acidic buffer and continued for 5 minute.

Row | pIC50 | SMILES
1 | 6.58 | CC(C)(c1ccc2cc(C(=O)NCc3ccnc4c(F)cc(F)cc34)ccc2n1)C(F)(F)F [Example C12, N-[(6,8-difluoroquinolin-4-yl)methyl]-2-(2,2,2-trifluoro-1,1-dimethylethyl)quinoline-6-carboxamide]
2 | 7.41 | C[C@@H](NC(=O)c1ccc2nc(C(C)(C)C)ccc2c1)c1ccc2[nH]nnc2c1 [Example C1, N-[(1R)-1-(1H-1,2,3-benzotriazol-6-yl)ethyl]-2-tert-butylquinoline-6-carboxamide]
3 | 7.30 | C[C@@H](NC(=O)c1ccc2nc(C(C)(C)C(F)(F)F)ccc2c1)c1ccnc2ccccc12 (single isomer, unassigned) [Example C13]
4 | 6.85 | C[C@@H](NC(=O)c1ccc2nc(C(C)(C)C)ccc2c1)c1ccc2[nH]c(=O)[nH]c2c1 [Example C2, 2-tert-butyl-N-[(1R)-1-(2-oxo-2,3-dihydro-1H-benzimidazol-6-yl)ethyl]quinoline-6-carboxamide]
5 | 6.56 | CC(NC(=O)c1ccc2nc(C(C)(C)C(F)(F)F)ccc2c1)c1ccc2c(c1)CC(=O)N2 (stereo not drawn) [Example C10, N-[1-(2-oxo-2,3-dihydro-1H-indol-5-yl)ethyl]-2-(2,2,2-trifluoro-1,1-dimethylethyl)quinoline-6-carboxamide]
6 | 6.37 | Cc1ccc2nccc(CNC(=O)c3ccc4nc(C(C)(C)C(F)(F)F)ccc4c3)c2c1 [Example C14, N-[(6-methylquinolin-4-yl)methyl]-2-(2,2,2-trifluoro-1,1-dimethylethyl)quinoline-6-carboxamide]
7 | 6.87 | CCC(NC(=O)c1ccc2nc(C(C)(C)C(F)(F)F)ccc2c1)c1ccnc2ccccc12 (stereo not drawn) [Example C18, N-(1-quinolin-4-ylpropyl)-2-(2,2,2-trifluoro-1,1-dimethylethyl) quinoline-6-carboxamide]
8 | 7.57 | CC(C)(c1ccc2cc(C(=O)NCc3cccc4cnccc34)ccc2n1)C(F)(F)F [Example C7, N-(isoquinolin-5-ylmethyl)-2-(2,2,2-trifluoro-1,1-dimethylethyl) quinoline-6-carboxamide]
9 | 6.45 | Cc1cc(CNC(=O)c2ccc3nc(C(C)(C)C(F)(F)F)ccc3c2)c2ccccc2n1 [Example C8, N-[(2-methylquinolin-4-yl)methyl]-2-(2,2,2-trifluoro-1,1-dimethylethyl)quinoline-6-carboxamide]
10 | 6.61 | CC(NC(=O)c1cnc2cc(C(C)(C)C)ccc2c1)c1ccnc2ccccc12 (stereo not drawn) [Example D1, 7-tert-butyl-N-(1-quinolin-4-ylethyl)quinoline-3-carboxamide]
11 | 6.76 | CC(C)(c1ccc2cc(C(=O)NCc3ccnc4ccc(F)cc34)ccc2n1)C(F)(F)F [Example C11, N-[(6-fluoroquinolin-4-yl)methyl]-2-(2,2,2-trifluoro-1,1-dimethylethyl)quinoline-6-carboxamide]
12 | 6.36 | Cc1cccc2c(CNC(=O)c3ccc4nc(C(C)(C)C(F)(F)F)ccc4c3)ccnc12 [Example C16, N-[(8-methylquinolin-4-yl)methyl]-2-(2,2,2-trifluoro-1,1-dimethylethyl)quinoline-6-carboxamide]
13 | 6.24 | CC(C)(c1ccc2cc(C(=O)NC(CO)c3ccnc4ccccc34)ccc2n1)C(F)(F)F (stereo not drawn) [Example C20, N-(2-hydroxy-1-quinolin-4-ylethyl)-2-(2,2,2-trifluoro-1,1-dimethylethyl)quinoline-6-carboxamide]
14 | 7.14 | CC(C)(c1ccc2cc(C(=O)NCc3ccnc4ccccc34)ccc2n1)C(F)(F)F [Example C5, N-(quinolin-4-ylmethyl)-2-(2,2,2-trifluoro-1,1-dimethylethyl) quinoline-6-carboxamide]
15 | 6.75 | CC(O)(c1ccc2cc(C(=O)NCc3cccc4cnccc34)ccc2n1)C(F)(F)F (stereo not drawn) [Example C17, N-(isoquinolin-5-ylmethyl)-2-(2,2,2-trifluoro-1-hydroxy-1-methylethyl)quinoline-6-carboxamide]
16 | 6.82 | CC(NC(=O)c1ccc2nc(C(C)(C)C(F)(F)F)ccc2c1)c1ccc2[nH]c(=O)[nH]c2c1 (stereo not drawn) [Example C9, N-[1-(2-oxo-2,3-dihydro-1H-benzimidazol-5-yl)ethyl]-2-(2,2,2-trifluoro-1,1-dimethylethyl)quinoline-6-carboxamide]
17 | 6.62 | CC(NC(=O)c1ccc2nc(C(C)(C)C)ccc2c1)c1ccc2c(c1)CC(=O)N2 (stereo not drawn) [Example C3, 2-tert-butyl-N-[1-(2-oxo-2,3-dihydro-1H-indol-5-yl)ethyl] quinoline-6-carboxamide]
18 | 6.50 | C[C@@H](NC(=O)c1ccc2nc(C(C)(O)C(F)(F)F)ccc2c1)c1ccnc2ccccc12 (stereo partly drawn) [Example C15, N-[(1R)-1-quinolin-4-ylethyl]-2-(2,2,2-trifluoro-1-hydroxy-1-methylethyl)quinoline-6-carboxamide]

Continued, molecule first:

Row | SMILES | pIC50
19 | O=C(NCc1ccnc2ccccc12)c1ccc2cc(C3CC3)ccc2c1 [Example A8, 6-cyclopropyl-N-(quinolin-4-ylmethyl)-2-naphthamide] | 6.39
20 | CC(C)(C)c1ccc2nc(C(=O)NCc3ccnc4ccccc34)ccc2c1 [Example B3, 6-tert-butyl-N-(quinolin-4-ylmethyl)quinoline-2-carboxamide] | 6.93
21 | Oc1cc2c(cc1O)CN(C(=S)NCCc1ccc(Cl)cc1)CCC2 [capsazepine, reference compound] | 6.34 to 6.63
22 | CC(NC(=O)c1ccc2cc(C(C)(C)C)ccc2n1)c1ccnc2ccccc12 (stereo not drawn) [Example B5, 6-tert-butyl-N-(1-quinolin-4-ylethyl)quinoline-2-carboxamide hydrochloride] | 6.69
23 | CC(C)(C)c1ccc2cc(C(=O)NCc3ccc4c(c3)CN=N4)ccc2c1 [Example A3, 6-tert-butyl-N-(3H-indazol-5-ylmethyl)-2-naphthamide] | 7.21
24 | CC1(c2ccc3cc(C(=O)NCc4ccnc5ccccc45)ccc3c2)CC1 [Example A7, 6-(1-methylcyclopropyl)-N-(quinolin-4-ylmethyl)-2-naphthamide] | 6.85
25 | CC[C@@H](NC(=O)c1ccc2cc(C(C)(C)C)ccc2n1)c1ccc2[nH]nnc2c1 [Example B2, N-[(1R)-1-(1H-1,2,3-benzotriazol-6-yl)propyl]-6-tert-butylquinoline-2-carboxamide] | 6.80
26 | C[C@@H](NC(=O)c1ccc2cc(C(C)(C)C)ccc2n1)c1ccc2[nH]nnc2c1 [Example B1, N-[(1R)-1-(1H-1,2,3-benzotriazol-6-yl)ethyl]-6-tert-butylquinoline-2-carboxamide] | 8.02
27 | CC(NC(=O)c1ccc2cc(C(C)(C)C)ccc2c1)c1ccc2c(c1)CC(=O)N2 (stereo not drawn) [Example A4, 6-tert-butyl-N-[1-(2-oxo-2,3-dihydro-1H-indol-5-yl)ethyl]-2-naphthamide] | 7.07
28 | COC(C)(c1ccc2cc(C(=O)NCc3ccnc4ccccc34)ccc2c1)C(F)(F)F (stereo not drawn) [Example A6, N-(quinolin-4-ylmethyl)-6-(1,1,1-trifluoro-2-methoxypropan-2-yl)-2-naphthamide] | 7.28
29 | CC(C)(C)c1ccc2nc(C(=O)NCc3ccc4[nH]nnc4c3)ccc2c1 [Example B6, N-(1H-1,2,3-benzotriazol-5-ylmethyl)-6-tert-butylquinoline-2-carboxamide] | 7.73
30 | C[C@@H](NC(=O)c1ccc2cc(C(C)(O)C(F)(F)F)ccc2c1)c1ccnc2ccccc12 (stereo partly drawn) [Example A9, N-[(1R)-1-quinolin-4-ylethyl]-6-(2,2,2-trifluoro-1-hydroxy-1-methylethyl)-2-naphthamide] | 6.42
31 | C[C@@H](NC(=O)c1ccc2cc(C(C)(C)C)ccc2c1)c1ccc2nn[nH]c2c1 [Example A1, N-[(1R)-1-(1H-1,2,3-benzotriazol-6-yl)ethyl]-6-tert-butyl-2-naphthamide] | 7.75
32 | CC(NC(=O)c1ccc2cc(C(C)(C)C)ccc2c1)c1ccc2[nH]ncc2c1 (stereo not drawn) [Example A5, 6-tert-butyl-N-[1-1H-indazole-5-ylethyl]-2-naphthamide] | 7.79
33 | C[C@@H](NC(=O)c1ccc2cc(C(C)(C)C)ccc2n1)c1ccnc2ccccc12 (single isomer, unassigned) [Example B7, 6-tert-butyl-N-(1-quinolin-4-ylethyl)quinoline-2-carboxamide] | 6.88
